Measured values taken from patent publication US6737383B1, “Herbicidal oxadiazolidines” (priority 1999, dated 2004).

What was measured:
[1] = tested on: bedstraw; assay: Test B pre/postemergence bedstraw; type: in vivo, Galium aparine; details: for Bedstraw plant response rating: scale of 0 to 10 where 0 is no effect and 10 is complete control
Outline: (§1)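 Response is a visual 0-to-10 score relative to untreated plants, where 0 means no effect and 10 means complete control, taken twelve to sixteen days after application. Treatments went onto soil at planting and onto foliage of 1- to 4-leaf plants, using a surfactant-containing non-phytotoxic solvent.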

[2] = tested on: blackgrass; assay: Test B pre/postemergence blackgrass; type: in vivo, Alopecurus myosuroides
Outline: as §1

[3] = tested on: surinam grass; assay: Test B pre/postemergence surinam grass; type: in vivo, Brachiaria decumbens
Outline: as §1

[4] = tested on: cocklebur; assay: Test B pre/postemergence cocklebur; type: in vivo, Xanthium strumarium
Outline: as §1

[5] = tested on: corn; assay: Test B pre/postemergence corn; type: in vivo, Zea mays
Outline: as §1

[6] = tested on: crabgrass; assay: Test B pre/postemergence crabgrass; type: in vivo, Digitaria sanguinalis
Outline: as §1

[7] = tested on: giant foxtail; assay: Test B pre/postemergence giant foxtail; type: in vivo, Setaria faberii
Outline: as §1

[8] = tested on: morningglory; assay: Test B pre/postemergence morningglory; type: in vivo, Ipomoea hederacea
Outline: as §1

[9] = tested on: pigweed; assay: Test B pre/postemergence pigweed; type: in vivo, Amaranthus retroflexus
Outline: as §1

[10] = tested on: rape; assay: Test B pre/postemergence rape; type: in vivo, Brassica napus
Outline: as §1

[11] = tested on: soybean; assay: Test B pre/postemergence soybean; type: in vivo, Glycine max
Outline: as §1

[12] = tested on: sugar beet; assay: Test B pre/postemergence sugar beet; type: in vivo, Beta vulgaris
Outline: as §1

[13] = tested on: velvetleaf; assay: Test B pre/postemergence velvetleaf; type: in vivo, Abutilon theophrasti
Outline: as §1

[14] = tested on: wheat; assay: Test B pre/postemergence wheat; type: in vivo, Triticum aestivum
Outline: as §1

[15] = tested on: wild oat; assay: Test B pre/postemergence wild oat; type: in vivo, Avena fatua
Outline: as §1

[16] = tested on: purple nutsedge; assay: Test B pre/postemergence purple nutsedge; type: in vivo, Cyperus rotundus
Outline: as §1

[17] = tested on: rice; assay: Test B flood test rice; type: in vivo, Oryza sativa
Outline: (§2)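 Flood test on plants grown to the 2-leaf stage; treated plants kept in greenhouse twelve to sixteen days, then visually rated against controls on a 0 (no effect) to 10 (complete control) scale.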

[18] = tested on: smallflower flatsedge; assay: Test B flood test smallflower flatsedge; type: in vivo, Cyperus difformis
Outline: as §2

[19] = tested on: duck salad; assay: Test B flood test duck salad; type: in vivo, Heteranthera limosa
Outline: as §2

[20] = tested on: bamyardgrass; assay: Test B flood test barnyardgrass; type: in vivo, Echinochloa crus-galli
Outline: as §2

[21] = Preemergence, Rate 62 g/ha, scale of 0 to 10 where 0 is no effect and 10 is complete control
[22] = Preemergence, Rate 250 g/ha, scale of 0 to 10 where 0 is no effect and 10 is complete control
[23] = Preemergence, Rate 500 g/ha, scale of 0 to 10 where 0 is no effect and 10 is complete control
[24] = Rate 62 g/ha, Postemergence, scale 0 to 10 (0 no effect, 10 complete control)
[25] = Rate 125 g/ha, Postemergence, scale of 0 to 10 where 0 is no effect and 10 is complete control
[26] = Rate 250 g/ha, Postemergence, scale of 0 to 10 where 0 is no effect and 10 is complete control
[27] = Rate 500 g/ha, Postemergence, scale 0 to 10, 0 no effect, 10 complete control
[28] = Rate 62 g/ha, headed Pre-emergence (flood test species), scale 0 to 10 (0 no effect, 10 complete control)
[29] = Rate 125 g/ha, Pre-emergence, flood test species, scale 0 to 10 where 0 is no effect and 10 is complete control
[30] = Rate 250 g/ha, Pre-emergence, flood-test species, scale 0 to 10, 0 is no effect, 10 is complete control
[31] = Rate 500 g/ha, Pre-emergence, flood test species, scale 0 to 10 (0 no effect, 10 complete control)

## CC(C)C(C)n1c(=O)on(C(=O)N(c2ccc(F)cc2)C(C)C)c1=O (stereo not shown) [Compound 316]
[1]; Preemergence, Rate 62 g/ha
  Bedstraw plant response rating: 0
[1]; Preemergence, Rate 125 g/ha
  Bedstraw plant response rating (0 to 10 scale): 0
[1]; Preemergence, Rate 250 g/ha
  Bedstraw plant response rating: 3
[1]; Preemergence, Rate 500 g/ha
  Bedstraw plant response rating: 6
[1]; Rate 125 g/ha, Postemergence
  Bedstraw plant response rating: 2
[2]; [21]
  Blackgrass plant response rating: 8
[2]; Preemergence, Rate 125 g/ha
  Blackgrass plant response rating (0 to 10 scale): 10
[2]; [22]
  Blackgrass plant response rating: 10
[2]; [23]
  Blackgrass plant response rating: 10
[2]; [24]
  Blackgrass plant response rating: 0
[2]; [25]
  Blackgrass plant response rating: 1
[2]; [26]
  Plant response rating, Blackgrass: 4
[2]; [27]
  Blackgrass plant response rating: 7
[3]; [21]
  B. signalgrass plant response rating: 6
[3]; Preemergence, Rate 125 g/ha
  B. signalgrass plant response rating (0 to 10 scale, 0 is no effect, 10 is complete control): 7
[3]; [22]
  B. signalgrass plant response rating: 9
[3]; [23]
  B. signalgrass plant response rating: 9
[3]; [24]
  B. signalgrass plant response rating: 0
[3]; [25]
  B. signalgrass plant response rating: 0
[3]; [26]
  Plant response rating, B. signalgrass: 0
[3]; [27]
  B. signalgrass plant response rating: 2
[4]; [21]
  Cocklebur plant response rating: 0
[4]; [22]
  Cocklebur plant response rating: 0
[4]; [23]
  Cocklebur plant response rating: 2
[4]; [24]
  Cocklebur plant response rating: 0
[4]; [25]
  Cocklebur plant response rating: 0
[4]; [26]
  Plant response rating, Cocklebur: 0
[4]; [27]
  Cocklebur plant response rating: 0
[5]; [21]
  Corn plant response rating: 0
[5]; Preemergence, Rate 125 g/ha
  Corn plant response rating (0 to 10 scale): 0
[5]; [22]
  Corn plant response rating: 0
[5]; [23]
  Corn plant response rating: 5
[5]; [24]
  Corn plant response rating: 0
[5]; [25]
  Corn plant response rating: 0
[5]; [26]
  Plant response rating, Corn: 0
[5]; [27]
  Corn plant response rating: 0
[6]; [21]
  Crabgrass plant response rating: 6
[6]; Preemergence, Rate 125 g/ha
  Crabgrass plant response rating (0 to 10 scale): 8
[6]; [22]
  Crabgrass plant response rating: 8
[6]; [23]
  Crabgrass plant response rating: 10
[6]; [24]
  Crabgrass plant response rating: 0
[6]; [25]
  Crabgrass plant response rating: 0
[6]; [26]
  Plant response rating, Crabgrass: 0
[7]; [21]
  Giant foxtail plant response rating: 9
[7]; Preemergence, Rate 125 g/ha
  Giant foxtail plant response rating (0 to 10 scale): 10
[7]; [22]
  Giant foxtail plant response rating: 10
[7]; [23]
  Giant foxtail plant response rating: 10
[7]; [24]
  Giant foxtail plant response rating: 0
[7]; [25]
  Giant foxtail plant response rating: 0
[7]; [26]
  Plant response rating, Giant foxtail: 2
[8]; [21]
  Morningglory plant response rating: 0
[8]; Preemergence, Rate 125 g/ha
  Morningglory plant response rating (0 to 10 scale): 0
[8]; [22]
  Morningglory plant response rating: 0
[8]; [23]
  Morningglory plant response rating: 0
[8]; [24]
  Morningglory plant response rating: 3
[8]; [25]
  Morningglory plant response rating: 4
[8]; [26]
  Plant response rating, Morningglory: 5
[9]; [21]
  Redroot pigweed plant response rating: 4
[9]; Preemergence, Rate 125 g/ha
  Redroot pigweed plant response rating (0 to 10 scale): 6
[9]; [22]
  Redroot pigweed plant response rating: 10
[9]; [23]
  Redroot pigweed plant response rating: 10
[9]; [24]
  Redroot pigweed plant response rating: 2
[9]; [25]
  Redroot pigweed plant response rating: 2
[9]; [26]
  Plant response rating, Redroot pigweed: 3
[10]; [21]
  Rape plant response rating: 0
[10]; Preemergence, Rate 125 g/ha
  Rape plant response rating (0 to 10 scale): 0
[10]; [22]
  Rape plant response rating: 4
[10]; [23]
  Rape plant response rating: 4
[10]; [24]
  Rape plant response rating: 0
[10]; [25]
  Rape plant response rating: 0
[10]; [26]
  Plant response rating, Rape: 1
[11]; [21]
  Soybean plant response rating: 0
[11]; Preemergence, Rate 125 g/ha
  Soybean plant response rating (0 to 10 scale): 0
[11]; [22]
  Soybean plant response rating: 0
[11]; [23]
  Soybean plant response rating: 0
[11]; [24]
  Soybean plant response rating: 3
[11]; [25]
  Soybean plant response rating: 3
[11]; [26]
  Plant response rating, Soybean: 4
[12]; [21]
  Sugarbeets plant response rating: 0
[12]; Preemergence, Rate 125 g/ha
  Sugarbeets plant response rating (0 to 10 scale): 0
[12]; [22]
  Sugarbeets plant response rating: 0
[12]; [23]
  Sugarbeets plant response rating: 4
[12]; [24]
  Sugarbeets plant response rating: 0
[12]; [25]
  Sugarbeets plant response rating: 0
[12]; [26]
  Plant response rating, Sugarbeets: 0
[13]; [21]
  Velvetleaf plant response rating: 0
[13]; Preemergence, Rate 125 g/ha
  Velvetleaf plant response rating (0 to 10 scale): 2
[13]; [22]
  Velvetleaf plant response rating: 3
[13]; [23]
  Velvetleaf plant response rating: 6
[13]; [24]
  Velvetleaf plant response rating: 0
[13]; [25]
  Velvetleaf plant response rating: 0
[13]; [26]
  Plant response rating, Velvetleaf: 2
[14]; [21]
  Wheat plant response rating: 0
[14]; Preemergence, Rate 125 g/ha
  Wheat plant response rating (0 to 10 scale): 0
[14]; [22]
  Wheat plant response rating: 2
[14]; [23]
  Wheat plant response rating: 2
[14]; [24]
  Wheat plant response rating: 0
[14]; [25]
  Wheat plant response rating: 0
[14]; [26]
  Plant response rating, Wheat: 2
[15]; [21]
  Wild oats plant response rating: 4
[15]; Preemergence, Rate 125 g/ha
  Wild oats plant response rating (0 to 10 scale): 4
[15]; [22]
  Wild oats plant response rating: 6
[15]; [23]
  Wild oats plant response rating: 6
[15]; [24]
  Wild oats plant response rating: 0
[15]; [25]
  Wild oats plant response rating: 0
[15]; [26]
  Plant response rating, Wild oats: 2
[16]; [21]
  Nutsedge plant response rating: 0
[16]; Preemergence, Rate 125 g/ha
  Nutsedge plant response rating (0 to 10 scale): 0
[16]; [24]
  Nutsedge plant response rating: 0
[16]; [25]
  Nutsedge plant response rating: 0
[16]; [26]
  Plant response rating, Nutsedge: 0
[17]; [28]
  Rice plant response rating: 0
[17]; [29]
  Rice plant response rating: 0
[17]; [30]
  Rice plant response rating: 1
[17]; [31]
  Rice plant response rating: 0
[18]; [28]
  S. Flatsedge plant response rating: 0
[18]; [29]
  S. Flatsedge plant response rating: 0
[18]; [30]
  S. Flatsedge plant response rating: 9
[18]; [31]
  S. Flatsedge plant response rating: 9
[19]; [28]
  Ducksalad plant response rating: 0
[19]; [29]
  Ducksalad plant response rating: 0
[19]; [30]
  Ducksalad plant response rating: 3
[19]; [31]
  Ducksalad plant response rating: 0
[20]; [28]
  Barnyardgrass plant response rating: 3
[20]; [29]
  Barnyardgrass plant response rating: 6
[20]; [30]
  Barnyardgrass plant response rating: 9
[20]; [31]
  Barnyardgrass plant response rating: 9
